Results taken from ChEMBL document CHEMBL5034018, “LXR-Mediated Regulation of Marine-Derived Piericidins Aggravates High-Cholesterol Diet-Induced Cholesterol Metabolism Disorder in Mice” (J Med Chem, 2021).
pKd: −log10 of the molar value. One block for each compound: values may come before it.

Legend:
[1] = Hepatotoxicity in renal carcinoma xenografted C57BL/6 mouse assessed as fold increase in plasma ALT at 0.8 mg/kg, ip; format: toxicity, organism-based; details: in vivo
[2] = Hepatotoxicity in renal carcinoma xenografted C57BL/6 mouse assessed as fold increase in plasma AST at 0.8 mg/kg, ip; format: toxicity, organism-based; details: in vivo
[3] = Induction of Cholesterol accumulation in human HepG2 cells assessed as fold increase in LDL-cholesterol level at 10 uM after 48 hrs; format: functional
[4] = biological target: T1, Oxysterols receptor LXR-alpha (Homo sapiens, UniProt Q13133); assay: Binding affinity to full-length human LXRalpha by surface plasmon resonance assay
T1 sequence (Q13133 whole entry): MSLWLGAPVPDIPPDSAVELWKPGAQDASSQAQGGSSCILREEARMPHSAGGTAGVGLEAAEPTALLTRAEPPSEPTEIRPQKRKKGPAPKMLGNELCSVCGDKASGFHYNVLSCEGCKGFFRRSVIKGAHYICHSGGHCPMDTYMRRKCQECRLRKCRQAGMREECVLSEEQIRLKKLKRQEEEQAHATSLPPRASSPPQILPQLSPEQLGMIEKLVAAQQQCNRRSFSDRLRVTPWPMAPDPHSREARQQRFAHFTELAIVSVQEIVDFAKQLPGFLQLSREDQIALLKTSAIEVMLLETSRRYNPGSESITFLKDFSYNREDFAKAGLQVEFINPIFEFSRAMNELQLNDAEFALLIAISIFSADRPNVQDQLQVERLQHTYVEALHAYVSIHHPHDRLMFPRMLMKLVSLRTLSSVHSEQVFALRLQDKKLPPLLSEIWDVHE

SMILES: CNC(=O)c1cc(Oc2ccc(NC(=O)Nc3ccc(Cl)c(C(F)(F)F)c3)cc2)ccn1 [SORAFENIB]
fold change (FC) [1]: 4.3 | fold change (FC) [2]: 2.3

SMILES: CC(C)c1c(C(=O)Nc2ccccc2)c(-c2ccccc2)c(-c2ccc(F)cc2)n1CC[C@@H](O)C[C@@H](O)CC(=O)O [ATORVASTATIN]
fold change (FC) [3]: 2.4

SMILES: O=C(O)Cc1cccc(OCCCN(Cc2cccc(C(F)(F)F)c2Cl)CC(c2ccccc2)c2ccccc2)c1
pKd [4]: 5.16

pKd [4]: 5.14
SMILES: C/C=C(\C)C(=O)[C@H](C)/C=C(C)/C=C/C/C(C)=C/Cc1nc(OC)c(OC)c(O)c1C
